From PubChem BioAssay (NCI)
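Method: 48-hour compound exposure of cells in 96-well plates, five concentrations, linear interpolation of endpoints. The concentration for 50% growth inhibition is given as GI50. TGI: concentration producing complete growth inhibition.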

Columns and labels:
Experiment in all cases: growth of human tumour cells (NCI), 48 h
COLO 205 colon = test system: COLO 205 colon
DU-145 prostate = test system: DU-145 prostate
HCT-116 colon = test system: HCT-116 colon
MDA-MB-435 = test system: MDA-MB-435
BT-549 breast = test system: BT-549 breast
NCI-H460 lung = test system: NCI-H460 lung
SF-268 CNS = test system: SF-268 CNS
TK-10 renal = test system: TK-10 renal
SW-620 colon = test system: SW-620 colon
HOP-92 NSCLC = test system: HOP-92 NSCLC
M14 melanoma = test system: M14 melanoma
T-47D breast = test system: T-47D breast
A549 NSCLC = test system: A549 NSCLC
SF-539 CNS = test system: SF-539 CNS
OVCAR-5 ovarian = test system: OVCAR-5 ovarian
EKVX NSCLC = test system: EKVX NSCLC
RPMI-8226 leukemia = test system: RPMI-8226 leukemia
U251 CNS = test system: U251 CNS
SK-MEL-5 melanoma = test system: SK-MEL-5 melanoma
OVCAR-8 ovarian = test system: OVCAR-8 ovarian
CAKI-1 renal = test system: CAKI-1 renal
MALME-3M melanoma = test system: MALME-3M melanoma
PC-3 prostate = test system: PC-3 prostate
MCF7 breast = test system: MCF7 breast
CCRF-CEM leukemia = test system: CCRF-CEM leukemia
NCI-H23 lung = test system: NCI-H23 lung
SK-MEL-28 melanoma = test system: SK-MEL-28 melanoma
HCT-15 colon = test system: HCT-15 colon
OVCAR-4 ovarian = test system: OVCAR-4 ovarian
KM12 colon = test system: KM12 colon
HL-60(TB) leukemia = test system: HL-60(TB) leukemia
NCI/ADR-RES ovarian = test system: NCI/ADR-RES ovarian
SNB-75 CNS = test system: SNB-75 CNS
UO-31 renal = test system: UO-31 renal
A498 renal = test system: A498 renal
SNB-19 CNS = test system: SNB-19 CNS
NCI-H226 lung = test system: NCI-H226 lung
HS 578T breast = test system: HS 578T breast
SN12C renal = test system: SN12C renal
NCI-H522 lung = test system: NCI-H522 lung
SF-295 CNS = test system: SF-295 CNS
SK-OV-3 ovarian = test system: SK-OV-3 ovarian
MOLT-4 leukemia = test system: MOLT-4 leukemia
HCC-2998 colon = test system: HCC-2998 colon
OVCAR-3 ovarian = test system: OVCAR-3 ovarian
K-562 leukemia = test system: K-562 leukemia
HT29 colon = test system: HT29 colon
UACC-257 melanoma = test system: UACC-257 melanoma
SK-MEL-2 melanoma = test system: SK-MEL-2 melanoma
LOX IMVI melanoma = test system: LOX IMVI melanoma
IGROV1 ovarian = test system: IGROV1 ovarian
ACHN renal = test system: ACHN renal
SR leukemia = test system: SR leukemia
786-0 renal = test system: 786-0 renal
MDA-MB-231 breast = test system: MDA-MB-231 breast
UACC-62 melanoma = test system: UACC-62 melanoma
HOP-62 NSCLC = test system: HOP-62 NSCLC

CC(=O)Nc1nc(C)c(-c2csc(Nc3ccccc3)n2)s1 was tested, and the GI50 (COLO 205 colon) was 7.66 µM, the TGI (COLO 205 colon) was 26.8 µM and the GI50 (DU-145 prostate) was 5.23 µM. It also gave a TGI (DU-145 prostate) of 17.5 µM, a GI50 (HCT-116 colon) of 3.76 µM and a TGI (HCT-116 colon) of 24.3 µM. It also gave a GI50 (MDA-MB-435) of 6.07 µM, a TGI (MDA-MB-435) of 19.7 µM and a GI50 (BT-549 breast) of 2.06 µM. It also gave a TGI (BT-549 breast) of 8.76 µM, a GI50 (NCI-H460 lung) of 3.38 µM and a TGI (NCI-H460 lung) of 14.1 µM. The GI50 (SF-268 CNS) was 5.4 µM, the TGI (SF-268 CNS) was 19.3 µM and the GI50 (TK-10 renal) was 8.6 µM. The TGI (TK-10 renal) was 24 µM, the GI50 (SW-620 colon) was 9.82 µM and the TGI (SW-620 colon) was 23.1 µM. It also gave a GI50 (HOP-92 NSCLC) of 1.57 µM, a TGI (HOP-92 NSCLC) of 8.28 µM and a GI50 (M14 melanoma) of 3.55 µM. For the same compound, the TGI (M14 melanoma) was 16.4 µM, the GI50 (T-47D breast) was 1.21 µM and the TGI (T-47D breast) was 6.55 µM. It also gave a GI50 (A549 NSCLC) of 6.39 µM, a TGI (A549 NSCLC) of 27 µM and a GI50 (SF-539 CNS) of 4.07 µM. The TGI (SF-539 CNS) was 15.5 µM, the GI50 (OVCAR-5 ovarian) was 5.32 µM and the TGI (OVCAR-5 ovarian) was 20.6 µM. For the same compound, the GI50 (EKVX NSCLC) was 2.94 µM, the TGI (EKVX NSCLC) was 13.6 µM and the GI50 (RPMI-8226 leukemia) was 3.57 µM. The TGI (RPMI-8226 leukemia) was 31.7 µM, the GI50 (U251 CNS) was 3.39 µM and the TGI (U251 CNS) was 20.8 µM. It also gave a GI50 (SK-MEL-5 melanoma) of 4.31 µM, a TGI (SK-MEL-5 melanoma) of 16.2 µM and a GI50 (OVCAR-8 ovarian) of 6.81 µM. The TGI (OVCAR-8 ovarian) was 20.5 µM, the GI50 (CAKI-1 renal) was 4.15 µM and the TGI (CAKI-1 renal) was 16.1 µM. The GI50 (MALME-3M melanoma) was 2.12 µM, the TGI (MALME-3M melanoma) was 11.7 µM and the GI50 (PC-3 prostate) was 3 µM. It also gave a TGI (PC-3 prostate) of 23.5 µM, a GI50 (MCF7 breast) of 2.16 µM and a TGI (MCF7 breast) of 12 µM. It also gave a GI50 (CCRF-CEM leukemia) of 4.11 µM, a TGI (CCRF-CEM leukemia) of 82 µM and a GI50 (NCI-H23 lung) of 4.96 µM. For the same compound, the TGI (NCI-H23 lung) was 20.7 µM, the GI50 (SK-MEL-28 melanoma) was 4.13 µM and the TGI (SK-MEL-28 melanoma) was 17.2 µM. It also gave a GI50 (HCT-15 colon) of 1.96 µM, a TGI (HCT-15 colon) of 13.5 µM and a GI50 (OVCAR-4 ovarian) of 6.5 µM. For the same compound, the TGI (OVCAR-4 ovarian) was 26.6 µM, the GI50 (KM12 colon) was 5.6 µM and the TGI (KM12 colon) was 19.6 µM. It also gave a GI50 (HL-60(TB) leukemia) of 10.5 µM, a TGI (HL-60(TB) leukemia) of 33.9 µM and a GI50 (NCI/ADR-RES ovarian) of 5.16 µM. For the same compound, the TGI (NCI/ADR-RES ovarian) was 23.2 µM, the GI50 (SNB-75 CNS) was 4.31 µM and the TGI (SNB-75 CNS) was 18.1 µM. For the same compound, the GI50 (UO-31 renal) was 2.55 µM, the TGI (UO-31 renal) was 12.9 µM and the GI50 (A498 renal) was 1.49 µM. It also gave a TGI (A498 renal) of 7.87 µM, a GI50 (SNB-19 CNS) of 8.09 µM and a TGI (SNB-19 CNS) of 20.6 µM. It also gave a GI50 (NCI-H226 lung) of 3.12 µM, a TGI (NCI-H226 lung) of 15.4 µM and a GI50 (HS 578T breast) of 2.35 µM. It also gave a TGI (HS 578T breast) of 8.06 µM, a GI50 (SN12C renal) of 3.6 µM and a TGI (SN12C renal) of 16.3 µM. It also gave a GI50 (NCI-H522 lung) of 6.46 µM, a TGI (NCI-H522 lung) of 22.9 µM and a GI50 (SF-295 CNS) of 2.32 µM. For the same compound, the TGI (SF-295 CNS) was 13 µM, the GI50 (SK-OV-3 ovarian) was 3.43 µM and the TGI (SK-OV-3 ovarian) was 42.8 µM. For the same compound, the GI50 (MOLT-4 leukemia) was 3.92 µM, the TGI (MOLT-4 leukemia) was 28.6 µM and the GI50 (HCC-2998 colon) was 8.83 µM. For the same compound, the TGI (HCC-2998 colon) was 21.4 µM, the GI50 (OVCAR-3 ovarian) was 4.01 µM and the TGI (OVCAR-3 ovarian) was 15.7 µM. For the same compound, the GI50 (K-562 leukemia) was 3.68 µM, the TGI (K-562 leukemia) was over 100 µM and the GI50 (HT29 colon) was 3.89 µM. The TGI (HT29 colon) was 21.8 µM, the GI50 (UACC-257 melanoma) was 10.9 µM and the TGI (UACC-257 melanoma) was 23.6 µM. It also gave a GI50 (SK-MEL-2 melanoma) of 10.7 µM, a TGI (SK-MEL-2 melanoma) of 24.4 µM and a GI50 (LOX IMVI melanoma) of 3.97 µM. The TGI (LOX IMVI melanoma) was 17 µM, the GI50 (IGROV1 ovarian) was 2.14 µM and the TGI (IGROV1 ovarian) was 7.72 µM. The GI50 (ACHN renal) was 4.25 µM, the TGI (ACHN renal) was 15.9 µM and the GI50 (SR leukemia) was 2.37 µM. The TGI (SR leukemia) was over 100 µM, the GI50 (786-0 renal) was 3.25 µM and the TGI (786-0 renal) was 16.1 µM. The GI50 (MDA-MB-231 breast) was 6.59 µM, the TGI (MDA-MB-231 breast) was 21.2 µM and the GI50 (UACC-62 melanoma) was 2.34 µM. For the same compound, the TGI (UACC-62 melanoma) was 12.6 µM, the GI50 (HOP-62 NSCLC) was 6.55 µM and the TGI (HOP-62 NSCLC) was 21.5 µM.
